Test results as given in patent US20190239509A1, “METHOD OF CONTROLLING PLANTS” (SYNGENTA PARTICIPATIONS AG, priority 2016, published 2019).

Assays:
Assay type in all cases: in vivo
[1] = tested on: soybean (Glycine max GLXMA); test: B2 drilled field trial Brazil, post-emergence, soybean; settings: 150 g ai/ha; 37 days after application; 100=total damage, 0=no damage
Procedure: (§1) Seeds of a variety of test species were used in drilled field trials to look at the control of important weed species present in corn crops as well as the effect on soybean (a volunteer crop in corn). Trials were carried out in Brazil in the summer season.
(§2) Plot size was 10-12 m^2, and two replicates were carried out per treatment. Plants were treated post-emergence at the 4 leaf stage. Fungicides and insecticides were used as necessary for plant health. The test was evaluated at 7 and 30 days after application (Amaranthus viridis (AMAVI), Bidens pilosa (BIDPI), Euphorbia heterophylla (EPPHL)) and 9 and 37 days after application (Brachiaria plantaginea (BRAPL) and soybean (Glycine max GLXMA) with 100=total damage to plant and 0=no damage to plant.
(§3) Expected results were calculated using the Colby Formula.

[2] = tested on: Bidens pilosa (BIDPI); test: B2 drilled field trial Brazil, post-emergence, BIDPI; settings: 100=total damage, 0=no damage; for BIDPI 7DAA Observed: 7 days after application; for BIDPI 30 DAA Observed: 30 days after application
Procedure: as §1, §2, §3

[3] = tested on: Digitaria horizontalis (DIGHO); test: B3 drilled field trial Brazil, post-emergence, DIGHO; settings: 28 days after application
Procedure: (§4) Seeds of a variety of test species were used in drilled field trials to look at the control of important weed species present in corn crops as well as the effect on soybean (a volunteer crop in corn). Trials were carried out in Brazil in the summer season and the second season.
(§5) Plot size was 10-15 m^2, and two replicates were carried out per treatment. Plants were treated post-emergence between the 2 and 4 leaf stage. Species tested were Amaranthus retroflexus (AMARE), Ipomoea grandifolia (IAQGR), Digitaria horizontalis (DIGHO), Bidens pilosa (BIDPI), Eleusine indica (ELEIN), Brachiaria decumbens (BRADC), Centrus echinatus (CCHEC), Euphorbia heterophylla (EPPHL), Brachiaria plantaginea (BRAPL) and Glycine max (GLXMA; soybean). Fungicides and insecticides were used as necessary for plant health. The test was evaluated at 28 days after application with 100=total damage to plant and 0=no damage to plant.
as §3

[4] = tested on: Centrus echinatus (CCHEC); test: B3 drilled field trial Brazil, post-emergence, CCHEC; settings: 28 days after application
Procedure: as §4, §5, §3

[5] = tested on: Euphorbia heterophylla (EPPHL); test: B3 drilled field trial Brazil, post-emergence, EPPHL; settings: Summer season, 28 days after application
Procedure: as §4, §5, §3

[6] = tested on: Ipomoea grandifolia (IAQGR); test: B3 drilled field trial Brazil, post-emergence, IAQGR; settings: 28 days after application
Procedure: as §4, §5, §3

[7] = tested on: Brachiaria decumbens (BRADC); test: B3 drilled field trial Brazil, post-emergence, BRADC; settings: 28 days after application
Procedure: as §4, §5, §3

[8] = tested on: Eleusine indica (ELEIN); test: B3 drilled field trial Brazil, post-emergence, ELEIN; settings: 28 days after application
Procedure: as §4, §5, §3

CCOC1C(O)N(c2cc(C(C)(C)C)on2)C(=O)N1C (stereo not drawn) [Compound 1.4]
GLXMA 37 DAA Observed [1]: 30 | BIDPI 7DAA Observed ([2]; 75 g ai/ha): 8 | BIDPI 30 DAA Observed ([2]; 75 g ai/ha): 8 | BIDPI 7DAA Observed ([2]; 100 g ai/ha): 10 | BIDPI 30 DAA Observed ([2]; 100 g ai/ha): 13 | BIDPI 7DAA Observed ([2]; 150 g ai/ha): 28 | BIDPI 30 DAA Observed ([2]; 150 g ai/ha): 20 | Observed damage (100=total damage to plant, 0=no damage) ([3]; Second season, 50 g ai/ha): 0 | Observed damage (100=total damage to plant, 0=no damage) ([3]; Second season, 75 g ai/ha): 0 | Observed damage (100=total damage to plant, 0=no damage) ([3]; Second season, 100 g ai/ha): 0 | Observed damage (100=total damage to plant, 0=no damage) ([3]; Second season, 150 g ai/ha): 0 | Observed damage (100=total damage to plant, 0=no damage) ([3]; Summer season, 50 g ai/ha): 23 | Observed damage (100=total damage to plant, 0=no damage) ([3]; Summer season, 75 g ai/ha): 45 | Observed damage (100=total damage to plant, 0=no damage) ([3]; Summer season, 100 g ai/ha): 45 | Observed damage (100=total damage to plant, 0=no damage) ([3]; Summer season, 150 g ai/ha): 69 | Observed damage (100=total damage to plant, 0=no damage) ([4]; Second season, 50 g ai/ha): 0 | Observed damage (100=total damage to plant, 0=no damage) ([4]; Second season, 75 g ai/ha): 0 | Observed damage (100=total damage to plant, 0=no damage) ([4]; Second season, 100 g ai/ha): 0 | Observed damage (100=total damage to plant, 0=no damage) ([4]; Second season, 150 g ai/ha): 0 | Observed damage (100=total damage to plant, 0=no damage) ([4]; Summer season, 50 g ai/ha): 0 | Observed damage (100=total damage to plant, 0=no damage) ([4]; Summer season, 75 g ai/ha): 0 | Observed damage (100=total damage to plant, 0=no damage) ([4]; Summer season, 100 g ai/ha): 0 | Observed damage (100=total damage to plant, 0=no damage) ([4]; Summer season, 150 g ai/ha): 0 | Observed damage (100=total damage to plant, 0=no damage) ([5]; 50 g ai/ha): 38 | Observed damage (100=total damage to plant, 0=no damage) ([5]; 75 g ai/ha): 58 | Observed damage (100=total damage to plant, 0=no damage) ([5]; 100 g ai/ha): 46 | Observed damage (100=total damage to plant, 0=no damage) ([5]; 150 g ai/ha): 52 | Observed damage (100=total damage to plant, 0=no damage) ([6]; Second season, 50 g ai/ha): 0 | Observed damage (100=total damage to plant, 0=no damage) ([6]; Second season, 75 g ai/ha): 3 | Observed damage (100=total damage to plant, 0=no damage) ([6]; Second season, 100 g ai/ha): 36 | Observed damage (100=total damage to plant, 0=no damage) ([6]; Second season, 150 g ai/ha): 69 | Observed damage (100=total damage to plant, 0=no damage) ([6]; Summer season, 50 g ai/ha): 33 | Observed damage (100=total damage to plant, 0=no damage) ([6]; Summer season, 75 g ai/ha): 38 | Observed damage (100=total damage to plant, 0=no damage) ([6]; Summer season, 100 g ai/ha): 68 | Observed damage (100=total damage to plant, 0=no damage) ([6]; Summer season, 150 g ai/ha): 100 | Observed damage (100=total damage to plant, 0=no damage) ([7]; Second season, 50 g ai/ha): 13 | Observed damage (100=total damage to plant, 0=no damage) ([7]; Second season, 75 g ai/ha): 21 | Observed damage (100=total damage to plant, 0=no damage) ([7]; Second season, 100 g ai/ha): 25 | Observed damage (100=total damage to plant, 0=no damage) ([7]; Second season, 150 g ai/ha): 43 | Observed damage (100=total damage to plant, 0=no damage) ([7]; Summer season, 50 g ai/ha): 18 | Observed damage (100=total damage to plant, 0=no damage) ([7]; Summer season, 75 g ai/ha): 28 | Observed damage (100=total damage to plant, 0=no damage) ([7]; Summer season, 100 g ai/ha): 25 | Observed damage (100=total damage to plant, 0=no damage) ([7]; Summer season, 150 g ai/ha): 30 | Observed damage (100=total damage to plant, 0=no damage) ([8]; Second season, 50 g ai/ha): 8 | Observed damage (100=total damage to plant, 0=no damage) ([8]; Second season, 75 g ai/ha): 11 | Observed damage (100=total damage to plant, 0=no damage) ([8]; Second season, 100 g ai/ha): 11 | Observed damage (100=total damage to plant, 0=no damage) ([8]; Second season, 150 g ai/ha): 14 | Observed damage (100=total damage to plant, 0=no damage) ([8]; Summer season, 50 g ai/ha): 18 | Observed damage (100=total damage to plant, 0=no damage) ([8]; Summer season, 75 g ai/ha): 25 | Observed damage (100=total damage to plant, 0=no damage) ([8]; Summer season, 100 g ai/ha): 33 | Observed damage (100=total damage to plant, 0=no damage) ([8]; Summer season, 150 g ai/ha): 53
